pIC50: −log10 of the molar value. Converted amounts (≈) assume the structure as drawn.
Experiments:
[1] = test system: HeLa cells; test: Annexin V-FITC/PI cell death quantification in HeLa; assay type: cell-based, human; conditions: 38 600 nM, 42 50 nM, 45 400 nM
Procedure: To determine whether the cytotoxic/antiproliferative effect of the MDS was due to apoptosis induction, cells were treated with variable concentrations of the drug for 72 h or 6 days, stained with Annexin V-FITC (AnV) and propidium iodide (PI), and analyzed by flow cytometry. Double negative cells (AnV^−/PI^−) were classified as live cells (L), cells positive for AnV and negative for PI (AnV^+/PI^−) were considered in Early Apoptosis (EA), cells negative for AnV and positive for PI (AnV^−/PI^+) were considered necrotic (N), and double-positive cells (AnV^+/PI^+) as Late Apoptosis (LA). In all cases, the compounds were used at the same concentrations previously used in cell cycle studies (Table 5).
MCF7, SKOV-3, and HeLa apoptotic cells were quantified using an Annexin V-FITC/PI apoptosis detection kit (Immunostep, Salamanca, Spain) according to the manufacturer’s guidelines. 1.5 mL/well of cells in the exponential growth phase at 2·10^4 cells/mL were seeded onto 12-well plates and left to attach overnight. After 24 h incubation, cells were treated with selected compounds. After 72 h (MCF7, SKOV-3, and HeLa) and 6 days (MCF7) post-treatment, attached and floating cells of treated and untreated wells were collected, centrifuged, resuspended in Annexin V binding buffer, and stained with Annexin V-FITC/PI. Cells were then incubated in darkness at room temperature for 15 min and a total of 30,000 cells were acquired and analyzed using the BD Accuri™ C6 Plus Flow Cytometer and Software (version 1.0.264.21, BD Biosciences, San José, CA, USA), respectively. Compounds were dissolved in DMSO and the final solvent concentration never exceeded 0.5% (v/v). Control wells included cells with 0.5% (v/v) DMSO.

[2] = Aqueous solubility, saturation shake-flask method, UV absorbance; conditions: phosphate buffer, pH 7, aqueous buffer, thermodynamic from solid
Procedure: UV absorbance at three maximum absorbance wavelengths of selected compounds was measured after 48 h shaking and subsequent microfiltration.
The aqueous solubility of the sulfonamides was determined using an approach based on the saturation shake-flask method. Tested compounds (1–2 mg) were stirred in pH 7.0 phosphate buffer (300 µL) for 48 h at room temperature. The resulting suspension was filtered over a 45 µm filter to discard insoluble residues, and the concentration in the supernatant was measured by UV absorbance. To determine the concentration, a scan between 270 and 400 nm was performed in a Helios-α UV-320 Spectrophotometer (Thermo-Spectronic, Thermo Fischer Scientific, Waltham, MA, USA) for each tested compound. Then, three maximum wavelengths of absorbance per compound were selected from the previous scan and calibration curves were performed at these three wavelengths. Solubility results are given as the average of the three measurements.

[3] = test system: HT-29 (colon adenocarcinoma); test: Antiproliferative activity against CA-4-resistant HT-29 with or without verapamil (sensitivity to MDR pumps, XTT); assay type: cell-based, human; conditions: for Difference between pairs of HT-29 IC50 values in the presence or absence of verapamil: 10 µM verapamil, up to two-fold change counted as not significant; for pIC50: Homo sapiens, HT-29, 72 h, XTT, without verapamil, read-out: Antiproliferative Activity IC50 HT-29
Text: Detecting changes in drug potency when inhibiting MDR-mediated efflux reflect that these transporters reduce the intracellular drug concentration. HT-29 has been reported to express moderate levels of MDR1, accounting for a resistant phenotype. A comparison of the antiproliferative IC50 values of each MDS in the presence or absence of verapamil provides an estimate of the susceptibility of each compound to efflux pumps.
MCF7 (human breast carcinoma), SKOV-3 (human ovarian carcinoma), OVCAR-3 (human ovarian carcinoma), OVCAR-8 (human ovarian carcinoma), and HeLa (human cervical carcinoma) cell lines were cultured in Dulbecco’s Modified Eagle’s Medium (DMEM) (Gibco, Thermo Fischer Scientific) containing 10% (v/v) heat-inactivated fetal bovine serum (HIFBS) (Lonza-Cambrex, Karlskoga, Sweden), 2 mM L-glutamine (Lonza-Cambrex, Karlskoga, Sweden), 100 μg/mL streptomycin, and 100 IU/mL penicillin (Lonza-Cambrex) at 37 °C in humidified 95% air and 5% CO2. HT-29 (human colon carcinoma), IGROV-1 (human ovarian carcinoma), and A2780 (human ovarian carcinoma) cell lines were cultured in RPMI 1640 medium (Gibco, Thermo Fischer Scientific) supplemented with 10% HIFBS, 100 μg/mL streptomycin, and 100 IU/mL penicillin at 37 °C in humidified 95% air and 5% CO2 atmosphere. The presence of mycoplasma was routinely checked with MycoAlert kit (Lonza-Cambrex) and only mycoplasma-free cells were used in the experiments. Ovarian tumor cell lines were originally acquired from Dr Atanasio Pandiella from Centro de Investigación del Cáncer (CIC), Salamanca, Spain. HeLa, HT-29 and MCF7 tumor cell lines were provided by Dr Faustino Mollinedo from Centro de Investigaciones Biológicas Margarita Salas, Madrid, Spain.
MCF7, HeLa, and HT-29 cell proliferation, when treated with the corresponding compounds, were determined using the XTT (sodium 3’-[1(phenylaminocarbonyl)-3,4-tetrazolium]-bis(4-methoxy-6-nitro)-benzenesulfonic acid hydrate) cell proliferation kit (Roche Molecular Biochemicals, Mannheim, Germany). A freshly prepared mixture of XTT labeling reagent with 0.02% (v/v) PMS (N-methyl-dibenzopyrazine methyl sulfate) electron coupling reagent was added to cells (50 µL/well in 96-well plates, total volume of 160 µL/well). Cells were incubated under standard culture conditions for 4 h (MCF7 and HeLa) or 6 h (HT-29). The absorbance of the formazan product generated was measured at 450 nm using a multi-well plate reader. SKOV-3, OVCAR-3, OVCAR-8, IGROV-1, A-2780 cell proliferation, when treated with the corresponding compound, were determined using MTT (3-(4,5-dimethylthiazol-2-yl)-2,5-diphenyl-2H-tetrazolium bromide) (Sigma-Aldrich, St. Louis, MO, USA). MTT in Phosphate Buffer Saline (PBS) (5 mg/ml) was added to cells (110 µL/well in 24-well plates, total volume of 1110 µL/well). After 1 hour of incubation, the medium was aspirated, and formazan violet crystals were dissolved in dimethyl sulfoxide (DMSO) (500 µL/well). Absorbance was measured at 570 nm in a plate reader (Ultra Evolution, Tecan, Männedorf, Suiza). To determine cell viability, cells in exponential growth phase were seeded (100 µL/well in 96-well plates and 1000 µL/well in 24-well plates) with appropriate cell line concentration (1.5·10^4 cells/mL for MCF7 and HeLa, 3·10^4 cells/mL for HT-29, and 1·10^4 cells/mL for SKOV-3, OVCAR-3, OVCAR-8, IGROV-1, and A-2780) in complete RPMI 1640 or DMEM medium at 37°C and 5% CO2 atmosphere. After 24 h incubation, to allow cells to attach to the plates, all compounds were added at 1 µM concentration and the effect on the proliferation was evaluated 72 h post-treatment. […] Non-linear curves fitting the experimental data were carried out for each compound. Compounds were dissolved in DMSO and the final solvent concentrations never exceeded 0.5% (v/v). The control wells included […] with 0.5% (v/v) DMSO and the positive control. 10 µM verapamil was included as a control for the HT-29 cell line.

| SMILES | Annexin V-FITC/PI 72 h EA (early apoptosis) [1] [%] | Annexin V-FITC/PI 72 h LA (late apoptosis, double-positives) [1] [%] | Annexin V-FITC/PI 72 h Necrosis [1] [%] | solubility at 48 h [2] [µg/mL] | Difference between pairs of HT-29 IC50 values in the presence or absence of verapamil [3] | pIC50 [3] |
| --- | --- | --- | --- | --- | --- | --- |
| CNc1ccc(S(=O)(=O)N(C)c2cc(OC)c(OC)c(OC)c2)cc1 [Compound 38] | 1.1 | 87.6 | 10.6 | 16 (≈ 43.7 µM) | no significant differences | 7.23 |
| COc1ccc(S(=O)(=O)N(C)c2cc(OC)c(OC)c(OC)c2)cc1N [Compound 42] | 1.4 | 82.0 | 9.4 | 108 (≈ 282 µM) | no significant differences | 7.09 |
| COc1ccc(S(=O)(=O)N(Cc2ccccc2)c2cc(OC)c(OC)c(OC)c2)cc1N [Compound 45] | 1.5 | 84.9 | 12.7 | 14 (≈ 30.5 µM) | no significant differences | 6.52 |
